The test system of data set [1] is HIV-1 protease and reverse transcriptase. Put plainly: Development of resistance (genotype/phenotype testing, PhenoSense GT). Conditions: two patients (one treatment-experienced, one treatment-naïve) receiving emtricitabine.
For data set [2] the following is noted: HIV-1-infected patients; cited from earlier work.
Data set [3] concerns HIV. The settings on record: cited from earlier work.
Data set [4] has as its system CYP isozymes. The settings on record: cited from earlier work.
The subject of data set [5] is plasma HIV-1 RNA (viral load). Conditions: treatment-naïve patients in ARTEMIS, TLOVR, ITT analysis; cited from earlier work.
Data set [6] in a line: Pharmacokinetic substudy (intensive sampling, non-compartmental analysis). The settings on record: steady state, plasma, substudy n = 60, darunavir 800 mg + cobicistat 150 mg once daily plus N[t]RTIs. As to the method:
The pharmacokinetic substudy included intensive pharmacokinetic sampling over 24 hours and was performed in a subset of patients (target n =48 evaluable) at selected study sites.
For the whole study population, sparse blood samples for analysis of study drug plasma concentrations were collected over 24 hours at Weeks 2, 4, 8, 12, 16, 24, 36 and 48. For the pharmacokinetic substudy, plasma samples were collected predose, 1, 2, 3, 3.5, 4, 4.5, 5, 6, 8, 10, 12 and 24 hours post-dose at a visit between Weeks 2 and 8.
For the pharmacokinetic substudy, steady-state pharmacokinetic parameters (Cmax, Cmin and AUC24h) were obtained using non-compartmental analysis (WinNonlin® software version 6.2, Pharsight Corporation, Mountain View, CA, USA). The intensive pharmacokinetic substudy data was used to revise an existing 2-compartment population pharmacokinetic model with first-order absorption.

Data set [7] is described as follows: Population pharmacokinetics of darunavir (Bayesian feedback analysis). Conditions: human, in vivo; for AUC(0-t): read-out: Population pharmacokinetic-derived AUC24h, mean (SD).
For data set [8], the system named is wild-type virus. The settings on record: cited from earlier work.

Like-named read-outs stand apart in the source and are kept apart here. Marks after values point to notes of the source that are not given here.

With `Nc1nc(=O)n([C@@H]2CS[C@H](CO)O2)cc1F` [Emtricitabine, emtricitabine], the “Phenotypic resistance associated with emerging M184V N[t]RTI RAM” value in data set [1] is reported as “associated with phenotypic resistance”.

In the case of `CC(C)c1nc(CN(C)C(=O)N[C@@H](CCN2CCOCC2)C(=O)N[C@H](CC[C@H](Cc2ccccc2)NC(=O)OCc2cncs2)Cc2ccccc2)cs1` [Cobicistat, cobicistat], in data set [2], the “AUCtau, historical data” value was 8.3 µg·h/mL and the “Cmax, historical data” value was 1100 ng/mL. For the same compound, the Antiviral activity result in data set [3] was “no antiviral activity”. In addition, the “Induction of CYP isozymes” value in data set [4] is recorded as “does not induce CYP isozymes”.

Turning to darunavir/ritonavir, the “Week 48 virologic response rate” value in data set [5] was 84%.

For the compound `Nc1ccn([C@@H]2CS[C@H](CO)O2)c(=O)n1` [lamivudine], the “Phenotypic resistance associated with emerging M184V N[t]RTI RAM” value in data set [1] is given as “associated with phenotypic resistance”.

Take `CC(C)CN(C[C@@H](O)[C@H](Cc1ccccc1)NC(=O)O[C@H]1CO[C@H]2OCC[C@H]21)S(=O)(=O)c1ccc(N)cc1` [Darunavir, darunavir]: the “Ctau [mean (SD)]” value in data set [6] is 1311 (969)* ng/ml. Moreover, the AUC(0-t) in data set [7] (17 treatment-experienced patients, with cobicistat) came out at 120 µg·h/mL; in data set [7] (281 treatment-naïve patients, with cobicistat), 101 µg·h/mL; in data set [7] (Week 48, overall n = 298, with cobicistat) it was 102 µg·h/mL. Further, the concentration at 0 h is 2920 ng/mL in data set [7] (17 treatment-experienced patients, with cobicistat, read-out: Population pharmacokinetic-derived C0h, mean (SD)); 2100 ng/mL in data set [7] (281 treatment-naïve patients, with cobicistat, read-out: Population pharmacokinetic-derived C0h, mean (SD)); 2150 ng/mL in data set [7] (Week 48, overall n = 298, with cobicistat, read-out: Population pharmacokinetic-derived trough plasma concentration (C0h), mean (SD)). Also, the “protein-binding adjusted 50% effective concentration” value in data set [8] was 55 ng/mL.

Source of the values: publication PMC4413526 (AIDS Research and Therapy, 2014).
